Values after ≈ are worked out from the molar mass of the structure shown.
Assays:
[1] = Caco-2 cell permeability; settings: human
Procedure: Caco-2 cell permeability was measured as described in Mol Pharm 2017, 14, 1601.

[2] = Metabolic stability in rat hepatocytes (rHep); settings: n = 1 or geometric mean of n = 2-3
[3] = Kinetic solubility; settings: kinetic from dmso stock
Procedure: Kinetic solubility was measured as described in Comput Aided Mol Des 2015, 29, 795.

[4] = target: Prolyl endopeptidase, Prolyl Oligopeptidase (hPREP) (Homo sapiens (Human), UniProt P48147); test: hPrep inhibition assay; type: biochemical; settings: hPREP 0.6 nM, Z-Gly-Pro-amino-methylcoumarin 50 μM; read-out: PREP IC50
Summary of the method: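 Fluorogenic read-out (340 nm excitation, 460 nm emission) after 20 min at rt, using 50 μM final Z-Gly-Pro-aminomethylcoumarin and 0.6 nM final enzyme, following 15 min compound preincubation. Buffer pH 7.5 with glutathione and Triton X-100. IC50 via one-site model on % inhibition vs log concentration.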

[5] = target: human Fibroblast activation protein alpha (hFAP) (Homo sapiens (Human), UniProt Q12884); test: hFAP inhibition assay (tight binders); type: biochemical; settings: Ala-Pro-AMC 20 μM, n = 1 or geometric mean n = 2-6; also: hFAP 2.4 pM
Procedure: The plates were read on a PHERAstar® reader with excitation 340 nm and emission 460 nm. Data were analyzed in Genedata Screener®. IC50 values were determined by plotting % inhibition versus log compound concentration and using a one site dose response model.

[6] = target: hFAP (M39-A757) (Homo sapiens (Human), UniProt Q12884); test: hFAP binding assay (surface plasmon resonance); settings: SPR, 20° C.; for hFAP Binding assay k(off) / hFAP Binding assay k(on): single cycle kinetics; for Kd: n = 1 or geometric mean n = 2-4
[7] = Metabolic stability in human liver microsomes (HLM); settings: human
Procedure: Metabolic stability in HLM was measured as described in J Comput Aided Mol Des 2015, 29, 795.

[8] = Solubility, kinetic solubility, n = 1 or average of n = 2-3
[9] = HLM CLint, n = 1 or average of n = 2-3

Chain of human Fibroblast activation protein alpha (hFAP) (Q12884 38-760): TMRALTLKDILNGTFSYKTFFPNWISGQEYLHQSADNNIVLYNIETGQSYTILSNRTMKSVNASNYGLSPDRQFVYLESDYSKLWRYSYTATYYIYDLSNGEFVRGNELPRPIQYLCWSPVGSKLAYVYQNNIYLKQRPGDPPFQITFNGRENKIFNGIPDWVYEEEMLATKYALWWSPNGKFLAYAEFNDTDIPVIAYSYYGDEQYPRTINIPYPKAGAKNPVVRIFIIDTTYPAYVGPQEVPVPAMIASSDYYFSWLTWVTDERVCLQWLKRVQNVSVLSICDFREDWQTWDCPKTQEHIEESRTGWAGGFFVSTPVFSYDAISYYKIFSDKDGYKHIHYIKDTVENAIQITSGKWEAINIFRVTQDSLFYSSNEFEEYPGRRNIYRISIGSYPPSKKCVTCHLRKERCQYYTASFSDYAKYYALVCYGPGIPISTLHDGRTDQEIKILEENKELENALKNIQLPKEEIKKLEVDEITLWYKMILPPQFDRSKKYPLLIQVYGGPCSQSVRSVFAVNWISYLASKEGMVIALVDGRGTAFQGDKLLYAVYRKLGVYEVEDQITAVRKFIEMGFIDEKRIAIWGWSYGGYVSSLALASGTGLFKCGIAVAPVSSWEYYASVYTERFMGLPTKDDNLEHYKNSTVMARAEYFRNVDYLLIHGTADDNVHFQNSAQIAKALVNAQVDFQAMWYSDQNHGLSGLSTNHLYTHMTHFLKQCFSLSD
Chain of Prolyl endopeptidase, Prolyl Oligopeptidase (hPREP) (P48147 whole entry): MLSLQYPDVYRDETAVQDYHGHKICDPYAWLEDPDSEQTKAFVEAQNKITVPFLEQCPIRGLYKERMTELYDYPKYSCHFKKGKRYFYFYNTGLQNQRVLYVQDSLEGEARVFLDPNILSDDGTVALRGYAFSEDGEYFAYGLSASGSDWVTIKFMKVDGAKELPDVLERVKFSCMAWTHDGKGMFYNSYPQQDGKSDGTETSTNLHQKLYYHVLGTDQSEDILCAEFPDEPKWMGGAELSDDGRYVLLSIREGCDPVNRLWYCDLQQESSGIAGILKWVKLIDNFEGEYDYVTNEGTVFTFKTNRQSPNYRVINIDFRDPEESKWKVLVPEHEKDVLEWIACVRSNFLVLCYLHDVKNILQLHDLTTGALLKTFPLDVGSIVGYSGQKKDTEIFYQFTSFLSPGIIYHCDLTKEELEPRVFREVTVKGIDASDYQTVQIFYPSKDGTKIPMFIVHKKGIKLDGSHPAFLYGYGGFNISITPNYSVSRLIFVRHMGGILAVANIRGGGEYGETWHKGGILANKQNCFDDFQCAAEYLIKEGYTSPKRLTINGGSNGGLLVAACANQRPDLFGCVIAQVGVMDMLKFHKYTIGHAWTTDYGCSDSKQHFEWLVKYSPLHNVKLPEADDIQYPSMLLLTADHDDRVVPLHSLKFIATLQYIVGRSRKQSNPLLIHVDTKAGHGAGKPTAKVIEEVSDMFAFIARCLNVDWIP
Chain of hFAP (M39-A757) (Q12884 39-757): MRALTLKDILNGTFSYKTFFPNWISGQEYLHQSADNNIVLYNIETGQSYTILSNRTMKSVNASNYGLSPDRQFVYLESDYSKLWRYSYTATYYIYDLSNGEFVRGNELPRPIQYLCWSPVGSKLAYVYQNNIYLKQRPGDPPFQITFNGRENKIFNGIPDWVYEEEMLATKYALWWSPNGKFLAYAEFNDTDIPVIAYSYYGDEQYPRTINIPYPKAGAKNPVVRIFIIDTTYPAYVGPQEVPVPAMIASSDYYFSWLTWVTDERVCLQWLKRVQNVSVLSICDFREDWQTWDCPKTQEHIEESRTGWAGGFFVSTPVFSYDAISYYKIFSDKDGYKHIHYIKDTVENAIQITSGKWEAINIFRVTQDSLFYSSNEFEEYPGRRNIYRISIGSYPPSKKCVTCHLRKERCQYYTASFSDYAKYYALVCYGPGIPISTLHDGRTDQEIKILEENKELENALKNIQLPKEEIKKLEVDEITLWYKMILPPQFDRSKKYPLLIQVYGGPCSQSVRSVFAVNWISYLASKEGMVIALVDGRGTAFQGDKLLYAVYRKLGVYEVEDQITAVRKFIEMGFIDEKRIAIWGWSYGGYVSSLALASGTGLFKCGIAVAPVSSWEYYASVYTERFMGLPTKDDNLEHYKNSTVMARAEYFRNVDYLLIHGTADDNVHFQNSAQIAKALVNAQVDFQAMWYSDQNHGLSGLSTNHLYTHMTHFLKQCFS

SMILES | Papp [1] | rHep CLint [2] | solubility [3, 8] | IC50 [4] | IC50 [5] | hFAP Binding assay k(off) [6] | hFAP Binding assay k(on) [6] | Kd [6] | microsomal CLint [7, 9] | Papp A→B [1] | Papp B→A [1] | solubility [3] | microsomal CLint [7] | efflux ratio [1]
N#C[C@@H]1CSCN1C(=O)CNC(=O)c1ccnc2ccc(N3C[C@H](O)C(F)(F)C3)cc12 (mixture of isomers) [Example 224, N-(2-((R)-4-Cyanothiazolidin-3-yl)-2-oxoethyl)-6-((RS)-3,3-difluoro-4-hydroxypyrrolidin-1-yl)quinoline-4-carboxamide] | 1.2 ×10⁻⁶ cm/s | <1 μL/min/1E6 | 50 µM | 670 nM | 0.073 nM | 0.000068 s⁻¹ | 3000000 M⁻¹ s⁻¹ | 0.023 nM | < 3 µL/min/mg |  |  |  |  | 
N#C[C@@H]1CSCN1C(=O)CNC(=O)c1ccnc2ccc(N3CCC4(CC3)COC4)cc12 [Example 229, (R)—N-(2-(4-cyanothiazolidin-3-yl)-2-oxoethyl)-6-(2-oxa-7-azaspiro[3.5]nonan-7-yl)quinoline-4-carboxamide] | 0.7 ×10⁻⁶ cm/s | 15 μL/min/1E6 |  | 320 nM | 0.091 nM | 0.000026 s⁻¹ | 2400000 M⁻¹ s⁻¹ | 0.01 nM |  | 22 ×10⁻⁶ cm/s | 32 ×10⁻⁶ cm/s | > 1000 µM | < 3 µL/min/mg | 
N#C[C@@H]1CSCN1C(=O)CNC(=O)c1ccnc2ccc(N3CC4CCC(C3)O4)cc12 [Example 79, 6-(8-Oxa-3-azabicyclo[3.2.1]octan-3-yl)-N-(2-((R)-4-cyanothiazolidin-3-yl)-2-oxoethyl)quinoline-4-carboxamide] |  | 6.2 μL/min/1E6 | 610 µM (≈ 267 µg/mL) | 630 nM | 0.043 nM | 0.00012 s⁻¹ | 16000000 M⁻¹ s⁻¹ | 0.018 nM | 21 µL/min/mg | 1.1 ×10⁻⁶ cm/s | 33 ×10⁻⁶ cm/s |  |  | 29
N#C[C@@H]1CSCN1C(=O)CNC(=O)c1ccnc2ccc(N3CC(F)(F)OC(F)(F)C3)cc12 [Example 5, (R)—N-(2-(4-Cyanothiazolidin-3-yl)-2-oxoethyl)-6-(2,2,6,6-tetrafluoromorpholino)quinoline-4-carboxamide] |  | 32 μL/min/1E6 | 11 µM (≈ 5.32 µg/mL) | 220 nM | 0.06 nM |  |  | 0.049 nM | 93 µL/min/mg | 1.9 ×10⁻⁶ cm/s | 32 ×10⁻⁶ cm/s |  |  | 17
CC1(C(F)F)CN(c2ccc3nccc(C(=O)NCC(=O)N4CSC[C@H]4C#N)c3c2)C1 [Example 135, (R)—N-(2-(4-Cyanothiazolidin-3-yl)-2-oxoethyl)-6-(3-(difluoromethyl)-3-methylazetidin-1-yl)quinoline-4-carboxamide] |  | 6.8 μL/min/1E6 | 310 µM (≈ 138 µg/mL) | 500 nM | 0.11 nM | 0.000023 s⁻¹ | 1700000 M⁻¹ s⁻¹ | 0.013 nM | 23 µL/min/mg | 4.4 ×10⁻⁶ cm/s | 29 ×10⁻⁶ cm/s |  |  | 6.5
N#C[C@@H]1CSCN1C(=O)CNC(=O)c1ccnc2ccc(N3C[C@@H]4C[C@H]3CO4)cc12 [Example 75, 6-((1S,4S)-2-Oxa-5-azabicyclo[2.2.1]heptan-5-yl)-N-(2-((R)-4-cyano-thiazolidin-3-yl)-2-oxoethyl)quinoline-4-carboxamide] |  | 6.7 μL/min/1E6 | 930 µM (≈ 394 µg/mL) | 490 nM | 0.05 nM | 0.000024 s⁻¹ | 2300000 M⁻¹ s⁻¹ | 0.0063 nM | 9 µL/min/mg | 0.77 ×10⁻⁶ cm/s | 17 ×10⁻⁶ cm/s |  |  | 21
N#C[C@@H]1CSCN1C(=O)CNC(=O)c1ccnc2ccc(N3CC(N4CCOCC4)C3)cc12 [Example 122, (R)—N-(2-(4-Cyanothiazolidin-3-yl)-2-oxoethyl)-6-(3-morpholinoazetidin-1-yl)quinoline-4-carboxamide] |  | <1 μL/min/1E6 | > 1000 µM | 840 nM | 0.049 nM | 0.000043 s⁻¹ | 1300000 M⁻¹ s⁻¹ | 0.033 nM | < 3 µL/min/mg | 0.2 ×10⁻⁶ cm/s | 10 ×10⁻⁶ cm/s |  |  | 50
N#C[C@@H]1CSCN1C(=O)CNC(=O)c1ccnc2ccc(N3C[C@H]4C[C@@H]3CO4)cc12 [Example 76, 6-((1R,4R)-2-Oxa-5-azabicyclo[2.2.1]heptan-5-yl)-N-(2-((R)-4-cyano-thiazolidin-3-yl)-2-oxoethyl)quinoline-4-carboxamide] |  | 3.5 μL/min/1E6 | > 1000 µM | 510 nM | 0.08 nM | 0.000052 s⁻¹ | 1000000 M⁻¹ s⁻¹ | 0.051 nM | 4.2 µL/min/mg | 0.64 ×10⁻⁶ cm/s | 20 ×10⁻⁶ cm/s |  |  | 31
CC1(C)CCN(c2ccc3nccc(C(=O)NCC(=O)N4CSC[C@H]4C#N)c3c2)C1=O [Example 12, (R)—N-(2-(4-Cyanothiazolidin-3-yl)-2-oxoethyl)-6-(3,3-dimethyl-2-oxopyrrolidin-1-yl)quinoline-4-carboxamide] |  | <1 μL/min/1E6 | 830 µM (≈ 363 µg/mL) | 510 nM | 0.065 nM | 0.000064 s⁻¹ | 1900000 M⁻¹ s⁻¹ | 0.038 nM | 6.4 µL/min/mg | 0.29 ×10⁻⁶ cm/s | 19 ×10⁻⁶ cm/s |  |  | 65
CO[C@H]1CCN(c2ccc3nccc(C(=O)NCC(=O)N4CSC[C@H]4C#N)c3c2)C1 [Example 207, N-(2-((R)-4-Cyanothiazolidin-3-yl)-2-oxoethyl)-6-((S)-3-methoxy-pyrrolidin-1-yl)quinoline-4-carboxamide] |  | 1.4 μL/min/1E6 | 280 µM (≈ 119 µg/mL) | 430 nM | 0.17 nM | 0.000053 s⁻¹ | 4600000 M⁻¹ s⁻¹ | 0.011 nM | < 3 µL/min/mg | 2.3 ×10⁻⁶ cm/s | 30 ×10⁻⁶ cm/s |  |  | 13
N#C[C@@H]1CSCN1C(=O)CNC(=O)c1ccnc2ccc(N3CC4(CC(F)C4)C3)cc12 [Example 155, (R)—N-(2-(4-Cyanothiazolidin-3-yl)-2-oxoethyl)-6-(6-fluoro-2-azaspiro[3.3]heptan-2-yl)quinoline-4-carboxamide] |  | 3.2 μL/min/1E6 |  | 380 nM | 0.086 nM | 0.000050 s⁻¹ | 3100000 M⁻¹ s⁻¹ | 0.016 nM |  | 4.2 ×10⁻⁶ cm/s | 27 ×10⁻⁶ cm/s | 400 µM (≈ 176 µg/mL) | 19 µL/min/mg | 6.5

Source: patent US20230312550A1, “N-(2-(4-CYANOTHIAZOLIDIN-3-YL)-2-OXOETHYL)-QUINOLINE-4-CARBOXAMIDES” (AstraZeneca AB, priority 2020, published 2023)
